SMILES strings stand for the structures. In brackets after ≈: the same amount, converted by molar mass. Positions of bridges follow the written chain, without caps; N, C: chain ends. Non-standard residues stand in square brackets, D forms with d. Residues, ends and D or L forms follow the SMILES beside them. *: point of attachment. X37 = O=C(c1ccc(C(F)(F)F)cc1F)*; Decanoyl = CCCCCCCCCC(=O)*; Heptanoyl = CCCCCCC(=O)*; X42 = Cc1ccc(C(=O)*)cc1F; Dab = NCC[C@H](N)C(=O)O; X33 = Cc1cccc(C(=O)*)c1; Abu = CC[C@H](N)C(=O)O; Dap = NC[C@H](N)C(=O)O

From patent USRE48335E1, “Polymyxin derivatives as antimicrobial compounds” (priority 2014, dated 2020) come the findings set out here.

For one assay, the system named is Pseudomonas aeruginosa. Summed up: (§1)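 Lipopeptides, as trifluoroacetate salts, tested for MIC in CAMHB by CLSI broth microdilution, with polymyxin B (sulphate) as comparator.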
For another assay, the system named is Acinetobacter baumannii. Summed up:
as §1

The next assay concerns Enterobacter cloacae. In short, it runs like this: as §1

As to `CC[C@@H]1NC(=O)[C@@H](CC(C)C)NC(=O)[C@H](CCN)NC(=O)[C@@H](NC(=O)[C@H](CN)NC(=O)[C@@H](NC(=O)[C@H](CCN)NC(=O)c2cccc(C)c2)[C@@H](C)O)CCNC(=O)[C@H]([C@@H](C)O)NC(=O)[C@H](CCN)NC(=O)[C@H](CCN)NC1=O` [Compound 87] (X33-[Dab]T[Dap][Dab][Dab][dL][Abu][Dab][Dab]T; lactam 4-C), in the assay with Pseudomonas aeruginosa, the “Minimum inhibitory concentration, Pa ATCC 27853” value amounted to 0.5 µg/mL (≈ 0.452 µM); the “Minimum inhibitory concentration, Pa FADDI-PA022” value came out at 1 µg/mL (≈ 0.905 µM); the “Minimum inhibitory concentration, Pa FADDI-PA025” value turned out to be 2 µg/mL (≈ 1.81 µM). For the same molecule, in the assay on Acinetobacter baumannii, the “Minimum inhibitory concentration, Ab A ATCC 17978” value is 1 µg/mL (≈ 0.905 µM); the “Minimum inhibitory concentration, Ab ATCC 19606” value is 2 µg/mL (≈ 1.81 µM); the “Minimum inhibitory concentration, Ab FADDI-AB034” value is 2 µg/mL (≈ 1.81 µM). In the assay with Enterobacter cloacae, the “Minimum inhibitory concentration, Ec FADDI-EC001” value worked out at 2 µg/mL (≈ 1.81 µM); the “Minimum inhibitory concentration, Ec FADDI-EC003” value was 1 µg/mL (≈ 0.905 µM); the “Minimum inhibitory concentration, Ec FADDI-EC006” value was 2 µg/mL (≈ 1.81 µM).

Regarding `CCCCCCCCCC(=O)N[C@@H](CCN)C(=O)N[C@H](C(=O)N[C@@H](CN)C(=O)N[C@H]1CCNC(=O)[C@H]([C@@H](C)O)NC(=O)[C@H](CCN)NC(=O)[C@H](CCN)NC(=O)[C@H](C)NC(=O)[C@@H](CC(C)C)NC(=O)[C@H](CCN)NC1=O)[C@@H](C)O` [Compound 38] (Decanoyl-[Dab]T[Dap][Dab][Dab][dL]A[Dab][Dab]T; lactam 4-C), in the assay on Pseudomonas aeruginosa, the “Minimum inhibitory concentration, Pa ATCC 27853” value came to 1 µg/mL (≈ 0.887 µM); the “Minimum inhibitory concentration, Pa FADDI-PA022” value came out at 2 µg/mL (≈ 1.77 µM); the “Minimum inhibitory concentration, Pa FADDI-PA025” value amounted to 2 µg/mL (≈ 1.77 µM). In the assay on Acinetobacter baumannii, the “Minimum inhibitory concentration, Ab A ATCC 17978” value came to 0.5 µg/mL (≈ 0.443 µM); the “Minimum inhibitory concentration, Ab ATCC 19606” value came out at 0.5 µg/mL (≈ 0.443 µM); the “Minimum inhibitory concentration, Ab FADDI-AB034” value amounted to 1 µg/mL (≈ 0.887 µM). For the same molecule, in the assay on Enterobacter cloacae, the “Minimum inhibitory concentration, Ec FADDI-EC001” value amounted to 0.5 µg/mL (≈ 0.443 µM); the “Minimum inhibitory concentration, Ec FADDI-EC003” value was 0.5 µg/mL (≈ 0.443 µM); the “Minimum inhibitory concentration, Ec FADDI-EC006” value was found to be 1 µg/mL (≈ 0.887 µM).

In the case of `CC[C@@H]1NC(=O)[C@@H](CC(C)C)NC(=O)[C@H](CCN)NC(=O)[C@@H](NC(=O)[C@H](CN)NC(=O)[C@@H](NC(=O)[C@H](CCN)NC(=O)c2ccc(C)c(F)c2)[C@@H](C)O)CCNC(=O)[C@H]([C@@H](C)O)NC(=O)[C@H](CCN)NC(=O)[C@H](CCN)NC1=O` [Compound 102] (X42-[Dab]T[Dap][Dab][Dab][dL][Abu][Dab][Dab]T; lactam 4-C), in the assay on Pseudomonas aeruginosa, the “Minimum inhibitory concentration, Pa ATCC 27853” value came out at 0.5 µg/mL (≈ 0.445 µM); the “Minimum inhibitory concentration, Pa FADDI-PA022” value stood at 0.5 µg/mL (≈ 0.445 µM); the “Minimum inhibitory concentration, Pa FADDI-PA025” value was determined as 2 µg/mL (≈ 1.78 µM). In the assay with Acinetobacter baumannii, the “Minimum inhibitory concentration, Ab A ATCC 17978” value stood at 1 µg/mL (≈ 0.89 µM); the “Minimum inhibitory concentration, Ab ATCC 19606” value is 2 µg/mL (≈ 1.78 µM); the “Minimum inhibitory concentration, Ab FADDI-AB034” value amounted to 1 µg/mL (≈ 0.89 µM). Besides, in the assay on Enterobacter cloacae, the “Minimum inhibitory concentration, Ec FADDI-EC001” value amounted to 1 µg/mL (≈ 0.89 µM); the “Minimum inhibitory concentration, Ec FADDI-EC003” value is 0.5 µg/mL (≈ 0.445 µM); the “Minimum inhibitory concentration, Ec FADDI-EC006” value is 4 µg/mL (≈ 3.56 µM).

With `CCCCCCCCCC(=O)N[C@@H](CCN)C(=O)N[C@H](C(=O)N[C@@H](CCN)C(=O)N[C@H]1CCNC(=O)[C@H]([C@@H](C)O)NC(=O)[C@H](CCN)NC(=O)[C@H](CCN)NC(=O)[C@H](C)NC(=O)[C@@H](CC(C)C)NC(=O)[C@H](CCN)NC1=O)[C@@H](C)O` [Compound 40] (Decanoyl-[Dab]T[Dab][Dab][Dab][dL]A[Dab][Dab]T; lactam 4-C), in the assay on Pseudomonas aeruginosa, the “Minimum inhibitory concentration, Pa ATCC 27853” value is 0.5 µg/mL (≈ 0.438 µM); the “Minimum inhibitory concentration, Pa FADDI-PA022” value stood at 2 µg/mL (≈ 1.75 µM); the “Minimum inhibitory concentration, Pa FADDI-PA025” value worked out at 4 µg/mL (≈ 3.5 µM). Further, in the assay with Acinetobacter baumannii, the “Minimum inhibitory concentration, Ab A ATCC 17978” value worked out at 0.5 µg/mL (≈ 0.438 µM); the “Minimum inhibitory concentration, Ab ATCC 19606” value is 0.5 µg/mL (≈ 0.438 µM); the “Minimum inhibitory concentration, Ab FADDI-AB034” value was determined as 0.5 µg/mL (≈ 0.438 µM). In addition, in the assay with Enterobacter cloacae, the “Minimum inhibitory concentration, Ec FADDI-EC001” value worked out at 0.25 µg/mL (≈ 0.219 µM); the “Minimum inhibitory concentration, Ec FADDI-EC003” value worked out at 0.25 µg/mL (≈ 0.219 µM); the “Minimum inhibitory concentration, Ec FADDI-EC006” value came to 0.25 µg/mL (≈ 0.219 µM).

As for `CCCCCCC(=O)N[C@@H](CCN)C(=O)N[C@H](C(=O)N[C@H](CO)C(=O)N[C@H]1CCNC(=O)[C@H]([C@@H](C)O)NC(=O)[C@H](CCN)NC(=O)[C@H](CCN)NC(=O)[C@H]([C@@H](C)O)NC(=O)[C@@H](CC(C)C)NC(=O)[C@H](CCN)NC1=O)[C@@H](C)O` [Compound 16] (Heptanoyl-[Dab]T[dS][Dab][Dab][dL]T[Dab][Dab]T; lactam 4-C), in the assay on Pseudomonas aeruginosa, the “Minimum inhibitory concentration, Pa ATCC 27853” value was 4 µg/mL (≈ 3.58 µM); the “Minimum inhibitory concentration, Pa FADDI-PA022” value was 4 µg/mL (≈ 3.58 µM); the “Minimum inhibitory concentration, Pa FADDI-PA025” value was more than 32 µg/mL. Besides, in the assay with Acinetobacter baumannii, the “Minimum inhibitory concentration, Ab A ATCC 17978” value is 0.5 µg/mL (≈ 0.448 µM); the “Minimum inhibitory concentration, Ab ATCC 19606” value was 2 µg/mL (≈ 1.79 µM); the “Minimum inhibitory concentration, Ab FADDI-AB034” value amounted to 2 µg/mL (≈ 1.79 µM). Moreover, in the assay with Enterobacter cloacae, the “Minimum inhibitory concentration, Ec FADDI-EC001” value came to 0.5 µg/mL (≈ 0.448 µM); the “Minimum inhibitory concentration, Ec FADDI-EC003” value was found to be 0.25 µg/mL (≈ 0.224 µM); the “Minimum inhibitory concentration, Ec FADDI-EC006” value is 0.25 µg/mL (≈ 0.224 µM).

Turning to `CCCCCCCCCC(=O)N[C@@H](CCN)C(=O)N[C@H](C(=O)N[C@H](CO)C(=O)N[C@H]1CCNC(=O)[C@H]([C@@H](C)O)NC(=O)[C@H](CCN)NC(=O)[C@H](CCN)NC(=O)[C@H]([C@@H](C)O)NC(=O)[C@@H](CC(C)C)NC(=O)[C@H](CCN)NC1=O)[C@@H](C)O` [Compound 9] (Decanoyl-[Dab]T[dS][Dab][Dab][dL]T[Dab][Dab]T; lactam 4-C), in the assay on Pseudomonas aeruginosa, the “Minimum inhibitory concentration, Pa ATCC 27853” value amounted to 4 µg/mL (≈ 3.45 µM); the “Minimum inhibitory concentration, Pa FADDI-PA022” value is 8 µg/mL (≈ 6.91 µM); the “Minimum inhibitory concentration, Pa FADDI-PA025” value was 32 µg/mL (≈ 27.6 µM). Further, in the assay with Acinetobacter baumannii, the “Minimum inhibitory concentration, Ab A ATCC 17978” value came to 1 µg/mL (≈ 0.863 µM); the “Minimum inhibitory concentration, Ab ATCC 19606” value came to 0.25 µg/mL (≈ 0.216 µM); the “Minimum inhibitory concentration, Ab FADDI-AB034” value was found to be 0.5 µg/mL (≈ 0.432 µM). Also, in the assay with Enterobacter cloacae, the “Minimum inhibitory concentration, Ec FADDI-EC001” value turned out to be 0.5 µg/mL (≈ 0.432 µM); the “Minimum inhibitory concentration, Ec FADDI-EC003” value came out at 1 µg/mL (≈ 0.863 µM); the “Minimum inhibitory concentration, Ec FADDI-EC006” value came to 1 µg/mL (≈ 0.863 µM).

Turning to `CC[C@@H]1NC(=O)[C@@H](CC(C)C)NC(=O)[C@H](CCN)NC(=O)[C@@H](NC(=O)[C@H](CN)NC(=O)[C@@H](NC(=O)[C@H](CCN)NC(=O)c2ccc(C(F)(F)F)cc2F)[C@@H](C)O)CCNC(=O)[C@H]([C@@H](C)O)NC(=O)[C@H](CCN)NC(=O)[C@H](CCN)NC1=O` [Compound 137] (X37-[Dab]T[Dap][Dab][Dab][dL][Abu][Dab][Dab]T; lactam 4-C), in the assay with Pseudomonas aeruginosa, the “Minimum inhibitory concentration (MIC), Pa ATCC 27853” value amounted to 0.5 µg/mL (≈ 0.425 µM); the “Minimum inhibitory concentration (MIC), Pa FADDI-PA022” value was determined as 1 µg/mL (≈ 0.849 µM); the “Minimum inhibitory concentration (MIC), Pa FADDI-PA025” value was 4 µg/mL (≈ 3.4 µM). In the assay with Acinetobacter baumannii, the “Minimum inhibitory concentration (MIC), Ab ATCC 17978” value was 0.25 µg/mL (≈ 0.212 µM); the “Minimum inhibitory concentration (MIC), Ab ATCC 19606” value is 0.5 µg/mL (≈ 0.425 µM); the “Minimum inhibitory concentration (MIC), Ab FADDI-AB034” value came out at 0.25 µg/mL (≈ 0.212 µM). Moreover, in the assay on Enterobacter cloacae, the “Minimum inhibitory concentration (MIC), Ec FADDI-EC001” value was less than 0.125 µg/mL; the “Minimum inhibitory concentration (MIC), Ec FADDI-EC003” value was less than 0.125 µg/mL; the “Minimum inhibitory concentration (MIC), Ec FADDI-EC006” value is less than 0.125 µg/mL.
